# From patent US20250320189A1, “NEW DERIVATIVES FOR TREATING TRPM3 MEDIATED DISORDERS” (Katholieke Universiteit Leuven, priority 2022, published 2025)
# Target: T1, mouse TRPM3α2 (mTRPM3) ion channel (Mus musculus, UniProt J9SQF3)
# T1 construct: expressed in transfected cells; host or cells: flip-in (Flp-In) HEK293
# Test: Monitoring the TRPM3 ion channel driven Ca2+ uptake (Fluo-4 AM assay)
# Type: cell-based
# Details: mTRPM3alpha2 overexpressing flip-in HEK293 cells, stimulated with Pregnenolone sulfate (PS) 50 μM
# Procedure, shortened: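 Flp-In HEK293 cells overexpressing mTRPM3α2 were loaded with Fluo-4 AM and added to plates holding compound plus 50 μM pregnenolone sulfate in Ca²⁺-containing Krebs buffer. Fluorescence (ex 485/em 535) was read right after cell addition. Inhibition was calculated against vehicle-stimulated and positive-control-inhibitor wells, with IC50 derived from it.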
# T1 sequence (J9SQF3 1-1709 isoform J9SQF3-12): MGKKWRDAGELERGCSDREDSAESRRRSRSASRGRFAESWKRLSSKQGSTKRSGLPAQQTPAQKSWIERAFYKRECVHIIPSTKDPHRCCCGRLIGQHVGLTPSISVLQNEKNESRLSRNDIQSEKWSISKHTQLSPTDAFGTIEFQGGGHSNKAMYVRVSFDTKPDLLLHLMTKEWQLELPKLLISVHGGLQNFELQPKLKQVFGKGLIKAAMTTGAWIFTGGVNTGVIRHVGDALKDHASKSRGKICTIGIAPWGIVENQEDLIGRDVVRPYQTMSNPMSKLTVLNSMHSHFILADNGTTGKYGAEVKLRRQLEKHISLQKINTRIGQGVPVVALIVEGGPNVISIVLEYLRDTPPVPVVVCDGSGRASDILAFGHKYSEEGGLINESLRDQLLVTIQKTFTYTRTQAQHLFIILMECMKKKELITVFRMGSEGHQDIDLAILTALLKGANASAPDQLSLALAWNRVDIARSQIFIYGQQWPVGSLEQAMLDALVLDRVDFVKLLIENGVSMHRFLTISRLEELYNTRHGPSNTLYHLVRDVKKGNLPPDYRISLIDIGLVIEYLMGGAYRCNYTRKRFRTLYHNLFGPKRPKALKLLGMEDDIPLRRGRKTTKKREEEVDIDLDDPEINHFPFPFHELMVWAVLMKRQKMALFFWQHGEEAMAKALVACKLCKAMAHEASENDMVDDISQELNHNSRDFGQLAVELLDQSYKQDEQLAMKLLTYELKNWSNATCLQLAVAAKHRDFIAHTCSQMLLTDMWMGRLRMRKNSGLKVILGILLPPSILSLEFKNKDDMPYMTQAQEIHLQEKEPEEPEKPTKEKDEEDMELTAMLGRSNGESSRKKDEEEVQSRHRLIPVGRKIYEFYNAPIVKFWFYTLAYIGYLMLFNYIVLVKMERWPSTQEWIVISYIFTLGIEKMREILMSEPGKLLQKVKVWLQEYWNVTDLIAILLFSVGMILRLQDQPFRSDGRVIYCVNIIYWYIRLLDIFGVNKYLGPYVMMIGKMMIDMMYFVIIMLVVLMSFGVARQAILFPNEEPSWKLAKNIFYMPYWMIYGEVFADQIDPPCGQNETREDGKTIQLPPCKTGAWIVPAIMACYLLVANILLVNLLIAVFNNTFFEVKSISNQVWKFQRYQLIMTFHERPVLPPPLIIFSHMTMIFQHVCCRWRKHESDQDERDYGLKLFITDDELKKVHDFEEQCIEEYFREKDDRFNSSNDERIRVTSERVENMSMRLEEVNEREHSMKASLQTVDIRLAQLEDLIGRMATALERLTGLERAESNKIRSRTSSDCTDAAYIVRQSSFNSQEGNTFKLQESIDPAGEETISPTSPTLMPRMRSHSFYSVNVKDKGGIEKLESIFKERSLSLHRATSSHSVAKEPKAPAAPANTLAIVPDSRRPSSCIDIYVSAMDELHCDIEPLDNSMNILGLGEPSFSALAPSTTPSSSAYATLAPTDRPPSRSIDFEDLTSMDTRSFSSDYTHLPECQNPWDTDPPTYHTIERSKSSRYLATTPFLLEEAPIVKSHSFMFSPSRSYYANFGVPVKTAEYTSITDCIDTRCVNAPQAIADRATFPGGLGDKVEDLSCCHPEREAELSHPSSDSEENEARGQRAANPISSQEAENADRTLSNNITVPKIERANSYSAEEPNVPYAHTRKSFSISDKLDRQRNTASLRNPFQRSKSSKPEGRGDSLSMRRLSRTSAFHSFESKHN
row,Compound,IC50 [µM]
1,"Cc1oc2ccc(OCC(F)F)cc2c1C(=O)NC(C)(CO)C(N)=O (single isomer, unassigned) [Cpd 041 - En1, 2-{[5-(2,2-difluoroethoxy)-2-methyl-1-benzofuran-3-yl]formamido}-3-hydroxy-2-methylpropanamide]",< 1
2,"Cc1oc2ccc(OCC3CC3(F)F)cc2c1C(=O)N[C@@H](CO)C(N)=O (single isomer, unassigned) [Cpd 002 - En1]",< 1
3,"Cc1oc2ccc(OCC3CC3)cc2c1C(=O)NC1(CO)CCNC1=O (single isomer, unassigned) [Cpd 028 - En1, 5-(cyclopropylmethoxy)-N-[3-(hydroxymethyl)-2-oxopyrrolidin-3-yl]-2-methyl-1-benzofuran-3-carboxamide]",< 1
4,"Cc1oc2ccc(OCC3CC3)cc2c1C(=O)NC1(CO)CCOCC1 [Cpd 030, 5-(cyclopropylmethoxy)-N-[4-(hydroxymethyl)oxan-4-yl]-2-methyl-1-benzofuran-3-carboxamide]",< 1

# The next lines start with the values.
row,IC50 [µM],Compound
1,< 1,"Cc1oc2ccc(OCC3CC3)cc2c1C(=O)N[C@@H](C)C(N)=O [Cpd 010, (2S)-2-{[5-(cyclopropylmethoxy)-2-methyl-1-benzofuran-3-yl]formamido}propanamide]"
2,< 1,"Cc1oc2ccc(OCC3(C(F)(F)F)CC3)cc2c1C(=O)NC(C)(CO)C(N)=O (single isomer, unassigned) [Cpd 048 - En2, 3-hydroxy-2-methyl-2-[(2-methyl-5-{[1-(trifluoromethyl)cyclopropyl]methoxy}-1-benzofuran-3-yl)formamido]propanamide]"
3,< 1,"Cc1oc2ccc(OCC3CC3(F)F)cc2c1C(=O)NC1CCNCC1(F)F (single isomer, unassigned) [Cpd 031 - En2, 5-[(2,2-difluorocyclopropyl)methoxy]-N-(3,3-difluoropiperidin-4-yl)-2-methyl-1-benzofuran-3-carboxamide]"
4,< 1,"Cc1oc2ccc(OCC3CC3(F)F)cc2c1C(=O)N[C@@H](CO)C(N)=O (single isomer, unassigned) [Cpd 002 - En2]"
5,1 to 20,"Cc1oc2ccc(OCC3(C)CC3)cc2c1C(=O)NC1CCNCC1(F)F (single isomer, unassigned) [Cpd 032 - En2, N-(3,3-difluoropiperidin-4-yl)-2-methyl-5-[(1-methylcyclopropyl)methoxy]-1-benzofuran-3-carboxamide]"
6,> 20,"Cc1oc2ccc(OCC3(C(F)(F)F)CC3)cc2c1C(=O)NC1(C)CCCNC1=O (single isomer, unassigned) [Cpd 061 - En1, 2-methyl-N-(3-methyl-2-oxopiperidin-3-yl)-5-{[1-(trifluoromethyl)cyclopropyl]methoxy}-1-benzofuran-3-carboxamide]"
7,< 1,"Cc1oc2ccc(OCC3(C)CC3)cc2c1C(=O)NC1CCNCC1(F)F (single isomer, unassigned) [Cpd 032 - En1, N-(3,3-difluoropiperidin-4-yl)-2-methyl-5-[(1-methylcyclopropyl)methoxy]-1-benzofuran-3-carboxamide]"
8,< 1,"Cc1oc2ccc(OC[C@H]3C[C@@H]4C[C@@H]4C3)cc2c1C(=O)NC(C)(CO)C(N)=O (single isomer, unassigned) [Cpd 051 - En2, Trans-2-{[5-({bicyclo[3.1.0]hexan-3-yl}methoxy)-2-methyl-1-benzofuran-3-yl]formamido}-3-hydroxy-2-methylpropanamide]"

# Tested on: rat pain model
# Test: not given
# Details: cited from earlier work
row,Compound,mechanical and cold hyperalgesia
1,O=C1C[C@@H](c2ccc(O)cc2)Oc2cc(O)ccc21 [Liquiritigenin],decrease mechanical and cold hyperalgesia

# Tested on: wild type mice / knock-out TRPM3 mice
# Test: not given
# Details: wild type mice vs knock-out TRPM3 mice; cited from earlier work
row,Compound,evoked pain
1,pregnenolone sulfate,evoked pain in wild type mice but not in knock-out TRPM3 mice

# Target: TRPM3 (Homo sapiens, UniProt Q9HCF6)
# Test: not given
# Details: cited from earlier work
# Sequence of TRPM3 (Q9HCF6 whole entry, species assumed): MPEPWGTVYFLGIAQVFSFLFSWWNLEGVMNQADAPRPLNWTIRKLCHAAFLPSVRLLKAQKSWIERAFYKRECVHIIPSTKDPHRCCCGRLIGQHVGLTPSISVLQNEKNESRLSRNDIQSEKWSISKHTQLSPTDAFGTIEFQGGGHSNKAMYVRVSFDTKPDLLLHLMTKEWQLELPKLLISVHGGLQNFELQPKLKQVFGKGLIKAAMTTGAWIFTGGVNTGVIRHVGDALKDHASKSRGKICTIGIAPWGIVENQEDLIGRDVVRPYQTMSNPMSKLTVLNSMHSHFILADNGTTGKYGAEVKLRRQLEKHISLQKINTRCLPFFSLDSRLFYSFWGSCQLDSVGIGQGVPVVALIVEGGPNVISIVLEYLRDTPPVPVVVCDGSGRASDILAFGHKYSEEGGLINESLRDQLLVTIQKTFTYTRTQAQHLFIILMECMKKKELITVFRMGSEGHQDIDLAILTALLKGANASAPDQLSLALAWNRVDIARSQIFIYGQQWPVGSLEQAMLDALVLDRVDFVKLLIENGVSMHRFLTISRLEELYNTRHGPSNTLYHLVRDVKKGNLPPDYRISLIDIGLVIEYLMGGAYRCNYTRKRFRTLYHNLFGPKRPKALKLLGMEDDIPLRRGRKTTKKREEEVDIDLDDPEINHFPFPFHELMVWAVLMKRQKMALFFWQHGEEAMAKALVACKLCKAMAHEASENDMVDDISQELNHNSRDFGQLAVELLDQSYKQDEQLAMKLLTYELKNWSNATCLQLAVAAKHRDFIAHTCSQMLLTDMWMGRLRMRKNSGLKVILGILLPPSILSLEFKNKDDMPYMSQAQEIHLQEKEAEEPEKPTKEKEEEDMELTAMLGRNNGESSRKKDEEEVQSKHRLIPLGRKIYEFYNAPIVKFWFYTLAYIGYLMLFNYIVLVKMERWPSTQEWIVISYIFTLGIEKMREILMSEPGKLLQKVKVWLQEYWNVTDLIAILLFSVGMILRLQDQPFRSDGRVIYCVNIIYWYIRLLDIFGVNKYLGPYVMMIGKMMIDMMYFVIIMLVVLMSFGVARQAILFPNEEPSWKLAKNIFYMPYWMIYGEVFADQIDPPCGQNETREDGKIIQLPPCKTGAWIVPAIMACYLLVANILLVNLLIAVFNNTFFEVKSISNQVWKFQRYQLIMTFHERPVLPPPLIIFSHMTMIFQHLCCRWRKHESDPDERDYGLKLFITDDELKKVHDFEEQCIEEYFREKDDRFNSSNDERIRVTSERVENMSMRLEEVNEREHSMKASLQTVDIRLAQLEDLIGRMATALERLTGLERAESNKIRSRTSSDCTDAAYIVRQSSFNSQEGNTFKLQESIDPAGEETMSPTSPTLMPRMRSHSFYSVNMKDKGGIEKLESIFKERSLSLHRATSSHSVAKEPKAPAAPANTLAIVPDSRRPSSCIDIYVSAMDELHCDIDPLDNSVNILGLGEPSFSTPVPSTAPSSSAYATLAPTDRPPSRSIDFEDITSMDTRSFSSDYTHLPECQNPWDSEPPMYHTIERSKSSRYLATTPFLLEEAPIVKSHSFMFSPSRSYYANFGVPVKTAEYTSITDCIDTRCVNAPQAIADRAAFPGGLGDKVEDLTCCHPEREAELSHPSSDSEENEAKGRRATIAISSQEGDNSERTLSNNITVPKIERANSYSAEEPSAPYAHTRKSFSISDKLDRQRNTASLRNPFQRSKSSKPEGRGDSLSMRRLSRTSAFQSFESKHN
row,Compound,activator of TRPM3
1,pregnenolone sulfate,potent known activator
